# In patent US12275684B2, “Methods for making and using endoxifen” (Atossa Therapeutics, Inc., priority 2017, dated 2025):
# Where “and” joins values, the source holds several entries; their conditions need not be identical. Equal entries are not always repeated. Where two headings read alike, the source gives them in different places.
# How the values were obtained:
# [1] = cited from earlier work
# [2] = Comparison of (Z)-endoxifen concentrations (oral) with published literature (Table 22); assay type: in vivo
# [3] = Safety and tolerability of oral (Z)-Endoxifen in healthy female volunteers; assay type: in vivo, human
# Source text: Study assessments included taking the subjects medical history, including evaluation of any on-study adverse events and concomitant medication use; height and weight; physical examination; periodic vital signs (body temperature, heart rate, respiratory rate, blood pressure); periodic 12-lead ECGs. […] Specific assessments to evaluate treatment safety included the following: the frequency and type of adverse events, clinical laboratory testing, 12-lead ECGs and vital signs. A modified FACT-ES® scoring questionnaire was used to assess symptomatology.
# Safety endpoints were summarized by dose cohort, with placebos pooled across cohorts. Treatment-emergent AEs were coded using the latest version of MedDRA by System Organ Class (SOC) and Preferred Term, classified from verbatim terms. The incidence and frequency of AEs, and SAEs, were summarized by cohort according to SOC and Preferred Terms, and by severity and relationship. The duration of AEs was determined and included in listings, along with the action taken and outcome. Vital signs, ECG and safety laboratory parameters were summarized at each scheduled time point using descriptive statistics. Post-dose assessments were compared with baseline measurements. The incidence of laboratory abnormalities was summarized. Physical examination findings were presented in listings.
# [4] = Accelerated stability study of (Z)-endoxifen free base solution in ethanol (E/Z by HPLC); assay type: physicochemical
# Method: HPLC-UV analyses of the samples was carried out using a Luna phenyl-hexyl column (4.6 mm×150 mm×3 μm of particle size). The column temperature was 40° C. and sample compartment temperature was maintained at ambient temperature. Samples were prepared by dissolving solids and filtrates at 0.2 mg/ml of sample in methanol as sample buffer. Samples were then injected into the column in an injection volume of 20 μl. Likewise, mildly acidic (pH 4.3) ammonium formate buffer/methanol in the mobile phase with gradient elution was used. Mobile phase system consisting of: Mobile Phase A (MPA) buffer was 10 mM HCOONH4 with 0.03% HCOOH buffer in water, and Mobile Phase B (MBP) buffer was 10 mM HCOONH4 in methanol with a gradient program used.
# The run time was 30 m, the flow rate was 1.0 mL/m, and the delay time was 5 m. Samples were detected by UV detection at 243 nm. Retention times were typically from 12.95 to 13.20 m for (E)-endoxifen and from 14.0 to 14.33 m for (Z)-endoxifen. Relative Retention Time (RRT) for (E)-endoxifen was […] and 1.0 for (Z)-endoxifen.
# The stability of (Z)-endoxifen free base Sample 1 of Table 11 was studied when stored at various temperatures in solid form and in ethanol (EtOH) solution. The (E)-endoxifen and (Z)-endoxifen levels were measured on days 2, 7 and 10 following placement of 1 g aliquots of purified (Z)-endoxifen free base in 180 mL HDPE bottles under dry N2, which were then placed in double LDPE bags. The double bagged HDPE bottles containing each sample were individually packed in aluminum foil bags and thermally sealed until they were opened for testing the stability of the samples. The (E)- and (Z)-isomers of endoxifen were monitored by HPLC as disclosed above. The purity of (Z)-endoxifen in solid form remained at about 97% at 40° C., 60° C., and 80° C. up to 10 days.
# [5] = 2.8 mg/mL in 70% EtOH, 25° C., 2 days
# [6] = 2.8 mg/mL in 70% EtOH, 25° C., 7 days
# [7] = 2.8 mg/mL in 70% EtOH, 25° C., 10 days
# [8] = 2.8 mg/mL in 70% EtOH, 40° C., 2 days
# [9] = 2.8 mg/mL in 70% EtOH, 40° C., 7 days
# [10] = 2.8 mg/mL in 70% EtOH, 40° C., 10 days
# [11] = 10 mg/mL in 99.5% EtOH, 25° C., 2 days
# [12] = 10 mg/mL in 99.5% EtOH, 25° C., 7 days
# [13] = 10 mg/mL in 99.5% EtOH, 25° C., 10 days
# [14] = 10 mg/mL in 99.5% EtOH, 40° C., 2 days
# [15] = 10 mg/mL in 99.5% EtOH, 40° C., 7 days
# [16] = 10 mg/mL in 99.5% EtOH, 40° C., 10 days
compound,measurement,setting,value
"CC/C(=C(\c1ccc(O)cc1)c1ccc(OCCNC)cc1)c1ccccc1 [(Z)-Endoxifen, (Z)-4-(1-(4-(2-(methylamino)ethoxy)phenyl)-2-phenylbut-1-enyl) phenol]",Published Literature Result of Average Plasma (Z)-Endoxifen Css,[1]; oral dose 1 mg,12.4 ng/mL and 33.1 nM
same,Published Literature Result of Average Plasma (Z)-Endoxifen Css,[1]; oral dose 2 mg,18.6 ng/mL and 49.8 nM
same,Published Literature Result of Average Plasma (Z)-Endoxifen Css,[1]; oral dose 4 mg,56.8 ng/mL and 152.1 nM
same,Published Literature Result of Average Plasma (Z)-Endoxifen Css,[1]; oral dose 8 mg,96.8 ng/mL and 259.2 nM
same,% Ratio of Css Study/Literature,[2]; oral dose 1 mg,154%
same,Study Result of Average Serum (Z)-Endoxifen Css,[2]; oral dose 1 mg,19.1 ng/mL and 51.1 nM
same,% Ratio of Css Study/Literature,[2]; oral dose 2 mg,204%
same,Study Result of Average Serum (Z)-Endoxifen Css,[2]; oral dose 2 mg,38 ng/mL and 101.7 nM
same,% Ratio of Css Study/Literature,[2]; oral dose 4 mg,150%
same,Study Result of Average Serum (Z)-Endoxifen Css,[2]; oral dose 4 mg,85.1 ng/mL and 227.9 nM
same,subjects with treatment related AEs of moderate severity,[3]; 5 of 18 subjects,28%
same,subjects with treatment-emergent AEs deemed related to study drug,"[3]; 15 of 18 subjects, oral 1-4 mg",83%
same,number of treatment related AEs of moderate severity,[3]; 18 subjects,6 AEs
same,number of treatment-related AEs,"[3]; 18 subjects, oral 1-4 mg",41 AEs
same,severity of AEs,"[3]; all AEs mild (75 of 84) or moderate (9 of 84), incl. placebo",no AEs classified as severe
same,adverse events reported only in subjects who received (Z)-Endoxifen,"[3]; human, in vivo","Upper respiratory infection, hot flush, abdominal distension, dry mouth, and menstruation delayed"
same,"safety by clinical laboratory tests, vital signs, ECG, FACT-ES versus placebo","[3]; human, in vivo",no clear differences in safety
same,(E)-endoxifen content,[4]; [5],(2.09%/
same,(Z)-endoxifen content,[4]; [5],96.59%)
same,E/Z ratio,[4]; [5],1/46
same,Total Impurity,[4]; [5],1.33%
same,(E)-endoxifen content,[4]; [6],(5.62%
same,(Z)-endoxifen content,[4]; [6],92.67%)
same,E/Z ratio,[4]; [6],1/17
same,Total Impurity,[4]; [6],1.71%
same,(E)-endoxifen content,[4]; [7],(10.46%/
same,(Z)-endoxifen content,[4]; [7],88.20%)
same,Total Impurity,[4]; [7],1.34%
same,(E)-endoxifen content,[4]; [8],(4.43%/
same,(Z)-endoxifen content,[4]; [8],94.23%)
same,E/Z ratio,[4]; [8],1/21
same,Total Impurity,[4]; [8],1.34%
same,(E)-endoxifen content,[4]; [9],(15.23%/
same,(Z)-endoxifen content,[4]; [9],83.04%)
same,Total Impurity,[4]; [9],1.73%
same,(E)-endoxifen content,[4]; [10],(22.59%/
same,(Z)-endoxifen content,[4]; [10],76.09%)
same,Total Impurity,[4]; [10],1.32%
same,(E)-endoxifen content,[4]; [11],(1.37%/
same,(Z)-endoxifen content,[4]; [11],97.33%)
same,E/Z ratio,[4]; [11],1/71
same,Total Impurity,[4]; [11],1.3%
same,(E)-endoxifen content,[4]; [12],(1.91%/
same,(Z)-endoxifen content,[4]; [12],96.37%)
same,E/Z ratio,[4]; [12],1/50
same,Total Impurity,[4]; [12],1.72%
same,(E)-endoxifen content,[4]; [13],(2.58%/
same,(Z)-endoxifen content,[4]; [13],96.03%)
same,E/Z ratio,[4]; [13],1/37
same,Total Impurity,[4]; [13],1.39%
same,(E)-endoxifen content,[4]; [14],(1.70%/
same,(Z)-endoxifen content,[4]; [14],96.98%)
same,E/Z ratio,[4]; [14],1/57
same,Total Impurity,[4]; [14],1.32%
same,(E)-endoxifen content,[4]; [15],(2.82%/
same,(Z)-endoxifen content,[4]; [15],95.45%)
same,E/Z ratio,[4]; [15],1/34
same,Total Impurity,[4]; [15],1/73%
same,(E)-endoxifen content,[4]; [16],(3.56%/
same,(Z)-endoxifen content,[4]; [16],95.10%)
same,E/Z ratio,[4]; [16],1/27
same,Total Impurity,[4]; [16],1.34%
same,stability in alcoholic solutions,"[4]; ethanol, elevated temperatures (40° C.), higher concentrations, over 10 days",surprisingly stable
